According to patent US20220160812A1, “A PHARMACEUTICALLY ACTIVE SUBSTANCE” (Cytopharma GmbH, priority 2019, published 2022):

System: BxPC-3 human pancreatic cancer cells
Experiment: cell vitality FACS analysis (region R-1, FSC/SSC), BxPC-3 cells
Format: cell-based
Conditions: BxPC-3, Protocol A, about 24 hours, FIG. 8
Experimental: To transfer adherent cells (A375 and BxPC-3 cells) after culture, cells are washed twice with PBS. To detach the cells, the enzyme biotase is used according to the manufacturer's instructions. For this purpose, after washing with PBS, the cells are mixed with biotase (5 ml of biotase solution per 75 cm^2 surface of the cell culture bottles) and incubated for 5 min at 37 degrees Celsius, and the biotase is separated by centrifugation. Cells cultivated in suspension (MEC-1 and lymphocytes) were transferred by dilution. The cells are suspended in culture medium and counted, each time 1.5×10^5 cells/cm^2 are seeded in 48-well plates and cultured for between 1.5 and 24 hours at 37 degrees Celsius, 5% CO2. Peptides are pre-diluted from stock solution with culture medium and 200 μl of peptide solution added so that final concentrations of 30 to 500 μM peptide are present in at most 1% (v/v) DMSO. As control solutions, culture medium without peptide (DMSO-containing) in culture medium or etoposide solution is added. After incubating the cells for several hours, the cell supernatant is transferred to a FACS tube for each batch and, after washing the cells with PBS, the wash solution is added. Then the cells are incubated with 200 μl of biotase solution for 10 min, 37° C., the cells with the biotase are also transferred to the FACS tube and the cells are collected by centrifugation for 5 min. The cell pellet is suspended in 500 μl of serum-free culture medium, then 1.5 ml of cold 80% ethanol (ethanol/PBS-80/20, v/v, stored at −20° C.) is added, the FACS tubes sealed and stored at −20 degrees Celsius for 15 to 18 h. Thereafter, the cells are centrifuged for 5 minutes at 120 g, suspended after removal of the supernatant in 2 ml PBS and incubated at 37 degrees Celsius for 30 minutes. After re-centrifugation, the cells are suspended in 0.5 ml DAPI solution and incubated for 15 min at 20 degrees Celsius in the dark. Thereafter, the cells are stored dark for a maximum of four hours in an ice bath, followed by the FACS analysis. […]
For suspension cells (MEC-1 and lymphocytes/PBMC) and for adherent cells analyzed according to Protocol A, FACS analysis to determine subG1 cell cycle and vital cell fractions was done on a Becton Dickinson LSR Fortessa flow cytometer. The analysis by FACS including subG1 and vital cell analysis according to protocol B was performed with a Cytomics FC 500 MPL flow cytometer from Beckman Coulter.
Changes of the cell form during cell death by apoptosis are documented in the literature (Lizard et al. 1995; Taga et al. 2000; Vermes et al., 2000). The protocols for cell cultivation, treatment and preparation of the cells before flow cytometry is detailed in separate examples. Cell suspensions of cell lines A375, BxPC-3, MEC-1 or of primary lymphocytes (see separate example of lymphocyte preparation) are analyzed by flow cytometry. The data are further analyzed by using the program “Flowing Software 2”. The data of light scattering are drawn in a two-dimensional FSC/SSC plot. Since the position in the FSC/SSC plot of apoptotic cells changes relative to non-apoptotic cells (Vermes et al., 2000), a region (R-1) is drawn representing mainly non-apoptotic cells and excluding cells with both low FSC and low SSC values and excluding cells with high values of FSC and/or SSC (FIG. 1). The regions are individually selected for each cell type (A375, BxPC-3, MEC-1 and primary lymphocytes). The percentage of untreated non-apoptotic cells in the region R-1 relative to total cells is set to 100%, representing 100% vital cells. The fraction (%) of cells in R-1 relative to the total number of cells in case of cell treatment by certain peptides or by cytotoxic drugs results in cell vitality, below 100%, thereby indicating a loss of cell vitality by the treatment. […]

[1] = all concentrations (50, 100, 200 μM)

Substance	decrease of cell vitality, efficiency in words (100 μM)	decrease of cell vitality, efficiency in words (200 μM)	decrease of cell vitality, comparison in words [1]	decrease of cell vitality, comparison in words (50 μM)	efficiency (decrease of cell vitality) in view of Peptide SEQ C1 (50 μM)	efficiency (decrease of cell vitality) in view of Peptide SEQ C1 (100 and 200 μM)
k-s-q-t-v-k-k-w-m-v-v-y-f-r-k [SEQID No 29]	very high efficiency	astonishing high efficiency	significantly greater decrease than the control peptide (C1)	–	–	–
k-s-q-t-v-q-k-w-m-v-v-y-f-r-k [SEQID No 36]	very high efficiency	astonishing high efficiency	significantly greater decrease than the control peptide (C1)	clear improvement over peptides SEQID NO 27, SEQID NO 37 and SEQID NO 29	at least fourfold	at least sevenfold
s-q-t-v-q-k-w-m-v-v-y-f-r-k [SEQID No 37]	–	astonishing high efficiency	significantly greater decrease than the control peptide (C1)	–	–	–
